Results on five compounds are retold here after BindingDB's records for doi:10.1016/j.bmcl.2007.11.060 (Amgen, 2008).

This test is described as follows: Antagonist activity at CXCR3 assessed as ITAC-mediated migration of human PBMC in presence of 100% human plasma.

Regarding `CCS(=O)(=O)CCN(C(=O)Cc1ccc(F)c(C(F)(F)F)c1)[C@H](C)c1nc2ccccn2c1-c1ccc(C#N)cc1` [(R)-N-(1-(3-(4-cyanophenyl)H-imidazo[1,2-a]pyridin-2-yl)ethyl)-N-(2-(ethylsulfonyl)ethyl)-2-(4-fluoro-3-(trifluoromethyl)phenyl)acetamide], the IC50 (usually the concentration that inhibits the measured activity by half) was determined as 72 nM.

As to `CCS(=O)(=O)CCN(C(=O)Cc1ccc(F)c(C(F)(F)F)c1)[C@H](C)c1nc2ncccc2cc1-c1ccc(C#N)cc1` [(R)-N-(1-(3-(4-cyanophenyl)-1,8-naphthyridin-2-yl)ethyl)-N-(2-(ethylsulfonyl)ethyl)-2-(4-fluoro-3-(trifluoromethyl)phenyl)acetamide], the IC50 came out at 48 nM.

For `CCS(=O)(=O)CCN(C(=O)Cc1ccc(F)c(C(F)(F)F)c1)[C@H](C)c1nc2ccccc2n1-c1ccc(C#N)cc1` [(R)-N-(1-(1-(4-cyanophenyl)-1H-benzo[d]imidazol-2-yl)ethyl)-N-(2-(ethylsulfonyl)ethyl)-2-(4-fluoro-3-(trifluoromethyl)phenyl)acetamide], the IC50 stood at 521 nM.

As to `CCS(=O)(=O)CCN(C(=O)Cc1ccc(F)c(C(F)(F)F)c1)[C@H](C)c1nc2c(c(=O)n1-c1ccc(C#N)cc1)CCCN2C` [(R)-N-(1-(3-(4-cyanophenyl)-8-methyl-4-oxo-3,4,5,6,7,8-hexahydropyrido[2,3-d]pyrimidin-2-yl)ethyl)-N-(2-(ethylsulfonyl)ethyl)-2-(4-fluoro-3-(trifluoromethyl)phenyl)acetamide], the concentration for half-maximal inhibition (IC50) was 88 nM.

Consider `CCS(=O)(=O)CCN(C(=O)Cc1ccc(F)c(C(F)(F)F)c1)[C@H](C)c1nc2ccccc2cc1-c1ccc(C#N)cc1` [(R)-N-(1-(3-(4-cyanophenyl)quinolin-2-yl)ethyl)-N-(2-(ethylsulfonyl)ethyl)-2-(4-fluoro-3-(trifluoromethyl)phenyl)acetamide], for which the concentration for half-maximal inhibition (IC50) was found to be 72 nM.
